Class data for 36 compounds are collected here from patent US20050197350A1, “Novel quinoline, tetrahydroquinazoline, and pyrimidine derivatives and methods of treatment related to the use thereof” (TAISHO PHARMACEUTICAL CO., LTD., priority 2003, published 2005).

In the assay the test system is MCH receptors. Briefly: MCH receptor activity class (method not given).
[1] abbreviates: MCH receptor, class by percent of control at 10^-7 M or IC50.
Setting [2] is: activity class 1-3: percent of control at 10^-7 M or IC50.
The mark [3] stands for this setting: class by percent of control at 10^-7 M or IC50.
Where [4] appears, read: class by percent of control at 10^−7 M or IC50.
Setting [5] is: MCH receptor activity class 1-3 (percent of control at 10^-7 M or IC50).
Setting [6] is: activity class per percent of control at 10^-7 M or IC50.

Read-outs that look alike come from different tables or passages of the source.

On to `CN(C)c1nc(N[C@H]2CC[C@@H](NC(=S)NCc3ccc(Cl)cc3)CC2)nc2c1CCCC2` [compound 2079], for which the class under setting [1] is 3 (Class 3 The value of percent of control at 10^−7 M was more than 60% or the value of IC50 was more than 200 nM.).

Take `CN(C)c1ccnc(N[C@H]2CC[C@@H](NC(=O)OCCOCc3ccccc3)CC2)n1` [compound 1619]: the class under setting [2] is listed as 3 (Class 3 The value of percent of control at 10^−7 M was more than 60% or the value of IC50 was more than 200 nM.).

`Cc1onc(-c2ccccc2Cl)c1C(=O)N[C@H]1CC[C@@H](Nc2nccc(N(C)C)n2)CC1` [compound 316]: the class under setting [3] is given as 3 (Class 3 The value of percent of control at 10^−7 M was more than 60% or the value of IC50 was more than 200 nM.).

Regarding `CN(C)c1nc(N[C@H]2CC[C@@H](NC(=S)Nc3ccccc3OC(F)F)CC2)nc2c1CCCC2` [compound 1976], the class under setting [1] was 3 (Class 3 The value of percent of control at 10^−7 M was more than 60% or the value of IC50 was more than 200 nM.). Still for that read-out and setting: next, `CN(C)c1cc(N[C@H]2CC[C@@H](NC(=O)c3ccc(Cl)c([N+](=O)[O-])c3)CC2)nc2ccccc12` [compound 27, 4-chloro-N-(cis-4-{[4-(dimethylamino)quinolin-2-yl]amino}cyclohexyl)-3-nitrobenzamide]: 1 (Class 1: The value of percent of control at 10^−7 M was less than 40% or the value of IC50 was less than 50 nM.). With `CC(C)Oc1ccc(CNC[C@H]2CC[C@@H](Nc3nc4c(c(N(C)C)n3)CCCC4)CC2)cc1` [compound 1398], under setting [3], the class is reported as 3 (Class 3 The value of percent of control at 10^−7 M was more than 60% or the value of IC50 was more than 200 nM.). On the same count and under the same terms, next, `CN(C)c1nc(N[C@H]2CC[C@@H](CNCc3ccc4c(c3)OCO4)CC2)nc2c1CCCC2` [compound 1424]: 3 (Class 3 The value of percent of control at 10^−7 M was more than 60% or the value of IC50 was more than 200 nM.). As to `Cc1cc(N(C)C)nc(N[C@H]2CC[C@@H](NC(=O)c3ccc(F)cc3)CC2)n1` [compound 2990, N-(cis-4-{[4-(dimethylamino)-6-methylpyrimidin-2-yl]amino}cyclohexyl)-4-fluorobenzamide], under setting [4], the class was 1 (Class 1: The value of percent of control at 10^−7 M was less than 40% or the value of IC50 was less than 50 nM.). For `CN(C)c1cc(N[C@H]2CC[C@@H](NC(=O)Oc3ccccc3)CC2)nc2ccccc12` [compound 1552], the class under setting [2] is on record as 3 (Class 3 The value of percent of control at 10^−7 M was more than 60% or the value of IC50 was more than 200 nM.). For the compound `CN(C)c1nc(N[C@H]2CC[C@@H](NC(=O)Nc3ccc4c(c3)OCCO4)CC2)nc2c1CCCC2` [compound 1731], the class under setting [3] is recorded as 3 (Class 3 The value of percent of control at 10^−7 M was more than 60% or the value of IC50 was more than 200 nM.). On to `Cc1cc(Br)cc(C)c1NC(=S)N[C@H]1CC[C@@H](Nc2nccc(N(C)C)n2)CC1` [compound 2328, N-(4-bromo-2,6-dimethylphenyl)-N′-(cis-4-{[4-(dimethylamino)pyrimidin-2-yl]amino}cyclohexyl)thiourea], for which the class under setting [5] is given as 1 (Class 1: The value of percent of control at 10^−7 M was less than 40% or the value of IC50 was less than 50 nM.). With `COc1cc(Br)c(CNC[C@H]2CC[C@@H](Nc3nccc(N(C)C)n3)CC2)cc1OC` [compound 1312], the class under setting [3] was 2 (Class 2: The value of percent of control at 10^−7 M was from 40% to 60% or the value of IC′50 was from 50 nM to 200 nM.).

As for `CCCSc1ncccc1C(=O)N[C@H]1CC[C@@H](Nc2nccc(N(C)C)n2)CC1` [compound 302], under setting [3], the class is listed as 3 (Class 3 The value of percent of control at 10^−7 M was more than 60% or the value of IC50 was more than 200 nM.). As to `COC(=O)c1ccc(NC(=O)N[C@H]2CC[C@@H](Nc3nc4c(c(N(C)C)n3)CCCC4)CC2)cc1` [compound 1908], the class under setting [1] is on record as 3 (Class 3 The value of percent of control at 10^−7 M was more than 60% or the value of IC50 was more than 200 nM.).

As to `Cc1cnc(N[C@H]2CC[C@@H](NS(=O)(=O)c3ccccc3)CC2)nc1N(C)C` [compound 2995, N-(cis-4-{[4-(dimethylamino)-5-methylpyrimidin-2-yl]amino}cyclohexyl)benzenesulfonamide], the class under setting [4] is reported as 3 (Class 3 The value of percent of control at 10^−7 M was more than 60% or the value of IC50 was more than 200 nM.).

For `CC(NC(=O)N[C@H]1CC[C@@H](Nc2nccc(N(C)C)n2)CC1)c1ccc(Br)cc1` (relative stereo) [compound 2248], under setting [3], the class is listed as 3 (Class 3 The value of percent of control at 10^−7 M was more than 60% or the value of IC50 was more than 200 nM.). For `Cc1cccc(C(=O)N[C@H]2CC[C@@H](Nc3cc(N(C)C)c4ccccc4n3)CC2)c1` [compound 50, N-(cis-4-{[4-(dimethylamino)quinolin-2-yl]amino}cyclohexyl)-3-methylbenzamide], the class under setting [1] was 1 (Class 1: The value of percent of control at 10^−7 M was less than 40% or the value of IC50 was less than 50 nM.). For the compound `CN(C)c1ccnc(N[C@H]2CC[C@@H](CNCc3ccc4c(c3)OCCO4)CC2)n1` [compound 1263], the class under setting [3] was 3 (Class 3 The value of percent of control at 10^−7 M was more than 60% or the value of IC50 was more than 200 nM.). The same measure, in the same setting: next, `CC(CN[C@H]1CC[C@@H](Nc2nccc(N(C)C)n2)CC1)c1ccccc1` (relative stereo) [compound 1231]: 3 (Class 3 The value of percent of control at 10^−7 M was more than 60% or the value of IC50 was more than 200 nM.). Consider `Cc1cc(N(C)C)nc(NC[C@H]2CC[C@@H](NC(=O)c3ccc(C(F)(F)F)c(F)c3)CC2)n1` [compound 2747], for which the class under setting [4] is given as 3 (Class 3 The value of percent of control at 10^−7 M was more than 60% or the value of IC50 was more than 200 nM.).

`CN(C)c1nc(N[C@H]2CC[C@@H](CNC(=O)c3cccc(C(F)(F)F)c3F)CC2)nc2c1CCCC2` [compound 626]: under setting [3], the class is 3 (Class 3 The value of percent of control at 10^−7 M was more than 60% or the value of IC50 was more than 200 nM.). Still for that read-out and setting: next, `CCOc1ccc(Br)cc1CNC[C@H]1CC[C@@H](Nc2cc(N(C)C)c3ccccc3n2)CC1` [compound 1166]: 3 (Class 3 The value of percent of control at 10^−7 M was more than 60% or the value of IC50 was more than 200 nM.). As for `CSc1ccc(CN[C@H]2CC[C@@H](Nc3cc(N(C)C)c4ccccc4n3)CC2)cc1` [compound 1118], the class under setting [6] is recorded as 3 (Class 3 The value of percent of control at 10^−7 M was more than 60% or the value of IC50 was more than 200 nM.).

Consider `COC(=O)c1sccc1NC(=S)N[C@H]1CC[C@@H](Nc2nccc(N(C)C)n2)CC1` [compound 2357], for which the class under setting [5] is given as 3 (Class 3 The value of percent of control at 10^−7 M was more than 60% or the value of IC50 was more than 200 nM.). For `CCSc1ncccc1C(=O)N[C@H]1CC[C@@H](Nc2cc(N(C)C)c3ccccc3n2)CC1` [compound 36], the class under setting [1] was 3 (Class 3 The value of percent of control at 10^−7 M was more than 60% or the value of IC50 was more than 200 nM.). The same measure, in the same setting: next, `CN(C)c1cc(N[C@H]2CC[C@@H](NC(=O)c3csc(-c4ccc5c(c4)CCO5)n3)CC2)nc2ccccc12` [compound 141]: 3 (Class 3 The value of percent of control at 10^−7 M was more than 60% or the value of IC50 was more than 200 nM.). For `CCOc1ccc(CNC[C@H]2CC[C@@H](Nc3nc4c(c(N(C)C)n3)CCCC4)CC2)c(OCC)c1` [compound 1412], under setting [3], the class was 1 (Class 1: The value of percent of control at 10^−7 M was less than 40% or the value of IC50 was less than 50 nM.).

Turning to `COc1cc(CNC[C@H]2CC[C@@H](Nc3cc(N(C)C)c4ccccc4n3)CC2)cc(OC)c1OC` [compound 1136], the class under setting [6] was 3 (Class 3 The value of percent of control at 10^−7 M was more than 60% or the value of IC50 was more than 200 nM.). For the compound `CN(C)c1nc(N[C@H]2CC[C@@H](CNC(=O)Oc3ccc4ccccc4c3)CC2)nc2c1CCCC2` [compound 1609], under setting [2], the class is reported as 3 (Class 3 The value of percent of control at 10^−7 M was more than 60% or the value of IC50 was more than 200 nM.). Regarding `Cc1cc(N(C)C)nc(N[C@H]2CC[C@@H](C(=O)NCc3ccc(F)cc3F)CC2)n1` [compound 2818, cis-N-(2,4-difluorobenzyl)-4-{[4-(dimethylamino)-6-methylpyrimidin-2-yl]amino}cyclohexanecarboxamide], the class under setting [4] was 1 (Class 1: The value of percent of control at 10^−7 M was less than 40% or the value of IC50 was less than 50 nM.).

For the compound `Cc1cc(N(C)C)nc(N[C@H]2CC[C@@H](C(=O)NCc3cccc(Cl)c3)CC2)n1` [Example 2577, cis-N-(3-chlorobenzyl)-4-{[4-(dimethylamino)-6-methylpyrimidin-2-yl]amino}cyclohexanecarboxamide], the class is recorded as 1. Consider `CN(C)c1nc(N[C@H]2CC[C@@H](NC(=O)NC3CCCC3)CC2)nc2c1CCCC2` [compound 1907], for which the class under setting [1] is 3 (Class 3 The value of percent of control at 10^−7 M was more than 60% or the value of IC50 was more than 200 nM.). Consider `CCCSc1ncccc1C(=O)NC[C@H]1CC[C@@H](Nc2nccc(N(C)C)n2)CC1` [compound 429], for which the class (class 1-3 by percent of control at 10^-7 M or IC50) is 2 (Class 2: The value of percent of control at 10^−7 M was from 40% to 60% or the value of IC′50 was from 50 nM to 200 nM.). `CN(C)c1nc(N[C@H]2CC[C@@H](NC(=O)c3ccc([N+](=O)[O-])s3)CC2)nc2c1CCCC2` [compound 964]: the class under setting [3] is 1 (Class 1: The value of percent of control at 10^−7 M was less than 40% or the value of IC50 was less than 50 nM.).

On to `CN(C)c1cc(N[C@H]2CC[C@@H](CNC(=O)c3c(Cl)cccc3Cl)CC2)nc2ccccc12` [compound 221], for which, under setting [3], the class is recorded as 2 (Class 2: The value of percent of control at 10^−7 M was from 40% to 60% or the value of IC′50 was from 50 nM to 200 nM.). `Cc1cc(N(C)C)nc(N[C@H]2CC[C@@H](NC(=O)c3cccc(C(F)(F)F)c3)CC2)n1` [compound 2954, N-(cis-4-{[4-(dimethylamino)-6-methylpyrimidin-2-yl]amino}cyclohexyl)-3-(trifluoromethyl)benzamide]: the class under setting [4] is listed as 1 (Class 1: The value of percent of control at 10^−7 M was less than 40% or the value of IC50 was less than 50 nM.).
